Source: patent US9422235B2, “Sulfonamide derivatives with therapeutic indications” (Pharmos Corporation, priority 2006, dated 2016)
Read-outs that look alike come from different tables or passages of the source.

Assays:
human CB2 receptor = human CB2 receptor (Homo sapiens (Human), UniProt P34972); assay: [35S]GTPγS-binding assay, functional activity at the human CB2 receptor; format: biochemical; conditions: Cell line C2-4
Description: Functional activity of compounds of the invention toward the cannabinoid receptors was determined by stimulation of [^35S]-GTPγS binding using membranes from HEK-293 cells expressing the hCB1 receptor and membranes expressing the hCB2 receptor derived from either Sf9 (PerkinElmer) or from HEK-293 cells. Activities were compared to that of the known cannabinoid full agonist CP55940 (Alexis). The purpose of this experiment is to determine the potency of the compounds of the invention as agonists or antagonists toward each of the receptor tested.
[^35]-GTPγS binding reactions were performed at 30° C. in 96-well plates containing 5-10 μg membrane protein suspended in 0.1 ml binding buffer (20 mM HEPES-NaOH, pH 7.4, 5 mM MgCl2, 100 mM NaCt, 0.2% (w/v) bovine serum albumin) supplemented with 50 μM GDP and 0.06 nM-10 μM of the compound being tested. Binding was initiated by the addition of [^35S]GTPγS (0.3 nM final concentration). Incubations were performed for 90 minutes and were terminated by filtration on GF/C filter plates (PerkinElmer). Filters were washed ten times with ice-cold wash buffer (20 mM HEPES-NaOH, pH 7.4, 10 mM sodium pyrophosphate). Non-specific binding was measured in the presence of 15 μM GTPγS.
Assays were performed in duplicates. Data was analyzed by plotting on the X axis the log concentration against percent of specific [^35S]GTPγS binding out of basal [^35S]GTPγS binding on the Y axis, non-linear regression is then performed using GraphPad Prism, version 3.0 (GraphPad, San Diego, Calif.) to calculate the EC50 and Emax of the compound. The EC50 value represents the concentration at which there is 50% [^35S]GTPγS binding and the Emax value the upper plateau of the curve.
CP55940 is a full agonist of the human and rat CB2 receptors. […] Full or partial agonism at the receptor was determined relative to the Emax value of CP55940.

Male Sprague Dawley rats [1] = assay: CFA-induced acute inflammatory pain, mechanical stimulus (Dynamic Plantar Aesthesiometer); format: in vivo, rat; conditions: three hours post administration
Description: Acute Inflammatory Pain. The purpose of this study is to test the analgesic activity of the compounds in inflammatory pain. Inflammatory pain is nociceptive in nature, wherein the pain sensation is often perceived for longer period than in acute pain. In the present model the duration of the preventive activity of compounds against inflammatory acute pain was assessed for up to about three hours post-drug administration. Inflammatory pain and paw edema were induced by intraplantar injection of 50% Complete Freund's Adjuvant (CFA) suspension in the animal hind paw. […]
Prior to, 24 hours post induction of inflammatory pain and one and three hours after drug administration, the animals reactions to pain stimuli were tested by mechanical stimulus. The mechanical (tactile) analgesia was assessed using a Dynamic Plantar Aesthesiomether (Ugo Basile Model 73400-002). […]
The results are presented as the force needed for hind paw withdrawal before surgery, 24 hours post surgery and 1 and 3 hours post drug administration. Results are expressed as mean±SEM for each treatment group and the differences among those groups are analyzed by analysis of variance (ANOVA). […]
The baseline values for the force to be applied for left hind paw withdrawal following mechanical stimuli is about 30 gram before inflammatory pain induction. […] Results, expressed as Force measured in grams, are depicted in FIG. 3.

female BALB/c mice = assay: Dextran Sulfate Salt (DSS)-induced acute colitis; format: in vivo, mouse; conditions: for % Survival / Clinical score / Percentage change in body weight: i.p.
Text: In order to test the activity of compounds of the invention in an animal model of inflammatory bowel disease, female BALB/c mice 9-12 week old (Harlan, Israel) were used for Dextran Sulfate Salt (DSS)-induced acute colitis studies. Mice (ten per treatment group) were provided with a solution of tap water containing 5% DSS (MW. 36000-50000; MP Biomedicals, LLC) ad libitum over an 8 day period. The DSS solution was replenished every other day and switched to tap water at day 8. Body weight was measured daily. The clinical scores combined both macroscopic (diarrhea, body weight, mortality) as well as microscopic (pathological) scores. Diarrhea score in the studies for each animal represented the daily summary of stool consistency (scored as: 0, normal; 1, soft but still formed; 2, very soft; 3, diarrhea) and the presence of blood in stool (scored: 0, None; 1, visible blood traces in stool; 2, signs of blood; 3, rectal bleeding). At the end of experiment animals were euthanized and their colons are examined for signs of pathological damage. The pathological scores, colon length and weight were determined from the cecum to the anus (scored: 0, normal; 1, slight inflammation; 2, moderate inflammation and/or edema; 3, heavy inflammation and/or ulceration and/or edema).
Two compounds were tested in DSS-induced colitis in mice, compounds 4 and 58. […] Results are expressed as mean ± SEM for each treatment group and the differences among those groups are analyzed by T-test. Two crosshatches indicate a p value below 0.01 and three indicate a p value below 0.001. Asterisks denote statistical significant weight loss relative to animal weight in the beginning of the experiment.
Alternatively, compound 58 (30 mg/kg) was administered orally from the first day of DSS administration (day 1) until the end of the experiment (day 10).

Male Sprague Dawley rats [2] = assay: Chronic constriction induced (CCI) model of neuropathic pain, mechanical hyperalgesia; format: in vivo, rat; conditions: 10 mg/kg, s.i.d, 14 days
Description: The analgesic activity of compounds of the invention is assessed in a chronic constriction induced (CCI) model of neuropathic pain. A peripheral neuropathy is induced in the left hind limb of rats following a chronic constriction of the sciatic nerve according to Bennet et al. (Bennet, G. J. & Xie, Y-K., Pain 33: 87-107, 1988). The development of mechanical hyperalgesia is monitored using an established behavioral test analgesy meter or dynamic planter aesthesiometer.
Pre-surgery baseline values are ascertained as the mean of 2 pre-surgery values. Once the baseline values are established, the animals are surgically prepared by constricting the left sciatic nerve with 4-0 chromic catgut loose ligatures. […]
The design is randomized, performed in a masked fashion as to whether drug or vehicle is being given. […] On the testing day, 24 hours after administration period lapsed, the differences between ipsilateral and contralateral hind leg thresholds were measured in grams using the Dynamic planter aesthesiometer or analgesy meter (Ugo basile).
Results are expressed as mean±SEM for each treatment group and the differences among those groups are analyzed by analysis of variance (ANOVA) followed by post-hoc analysis using Tukey's test. […]

Sequence of human CB2 receptor (P34972 whole entry): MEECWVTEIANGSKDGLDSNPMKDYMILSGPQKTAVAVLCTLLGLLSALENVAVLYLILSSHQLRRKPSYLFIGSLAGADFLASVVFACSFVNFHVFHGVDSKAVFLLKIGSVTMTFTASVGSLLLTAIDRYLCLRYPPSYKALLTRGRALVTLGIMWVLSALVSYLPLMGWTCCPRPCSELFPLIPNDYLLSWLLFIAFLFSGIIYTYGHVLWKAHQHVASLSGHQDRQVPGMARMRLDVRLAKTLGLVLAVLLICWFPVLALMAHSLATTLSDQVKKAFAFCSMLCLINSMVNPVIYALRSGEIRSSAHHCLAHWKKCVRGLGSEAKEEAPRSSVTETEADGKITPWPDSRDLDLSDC

## COc1cc(Nc2ccc(S(=O)(=O)NCC3CC3)c(C(F)(F)F)c2)cc(OC)c1 [Compound 4, N-Cyclopropylmethyl-4-(3,5-dimethoxy-phenylamino)-2-trifluoromethyl-benzenesulfonamide]
Human CB2 receptor; Emax of compound divided by Emax of CP55940, read-out: % Activity (relative to CP55,940)
  Emax: 51%
Human CB2 receptor; upper plateau of [35S]GTPγS binding curve, read-out: Emax (%)
  Emax: 26%
Male Sprague Dawley rats [1]; 10 mg/kg i.p.
  reversal of pain threshold of injured paw: 50%
Male Sprague Dawley rats [1]; 30 mg/kg i.p.
  reversal of pain threshold of injured paw: 100%
Female BALB/c mice; 20 mg/kg
  % Survival: 90%
  Clinical score: 3.4 ± 0.7
  Percentage change in body weight: −9.6 ± 1.59 %
Female BALB/c mice; 40 mg/kg
  % Survival: 100%
  Clinical score: 3.1 ± 0.6
  Percentage change in body weight: −5 ± 2.3 %
Female BALB/c mice; administered intraperitoneally
  efficacy in DSS-induced colitis (weight loss, clinical signs or gross pathology): modest efficacy
Male Sprague Dawley rats [2]
  reduction of the CCI induced hyperalgesia: significant reduction
